The values that follow come from PMC6497071 (Bioorganic & medicinal chemistry letters, 2018).

Structures are written as SMILES. Like-named read-outs stand apart in the source and are kept apart here.

In one assay the test system is MCF7. The note with it: MCF7 (Breast Cancer), five dose; cited from earlier work.
The next assay deals with HOP-92. The note with it: HOP-92 (Lung Cancer), five dose; cited from earlier work.
For another assay, the system named is MOLT-4. The note with it: MOLT-4 (Leukemia), five dose; cited from earlier work.
A further assay has as its system HS 578T. The conditions noted are these: HS 578T (Breast Cancer), five dose; cited from earlier work.
Assay [1] has as its system panel of 60 human tumor cell lines. The note with it: against 87% of the cancer cell lines; cited from earlier work.
For the next assay, the system named is SF-539. The conditions noted are these: SF-539 (CNS Cancer), five dose; cited from earlier work.
In the next assay the test system is ACHN. The conditions noted are these: ACHN (Renal Cancer), five dose; cited from earlier work.
A further assay deals with SF-268. The note with it: SF-268 (CNS Cancer), five dose; cited from earlier work.
A further assay deals with LOX IMVI. The conditions noted are these: LOX IMVI (Melanoma), five dose; cited from earlier work.
In a further assay the test system is SW-620. The conditions noted are these: SW-620 (Colon Cancer), five dose; cited from earlier work.
A further assay relates to K-562. The note with it: K-562 (Leukemia), five dose; cited from earlier work.
The test system of the next assay is SF-295. The conditions noted are these: SF-295 (CNS Cancer), five dose; cited from earlier work.
For the next assay, the system named is A498. The note with it: A498 (Renal Cancer), five dose; cited from earlier work.
A further assay deals with NCI-H522. The conditions noted are these: NCI-H522 (Lung Cancer), five dose; cited from earlier work.
The subject of the next assay is OVCAR-3. The note with it: OVCAR-3 (Ovarian Cancer), five dose; cited from earlier work.
The next assay relates to MDA-MB-435. The note with it: MDA-MB-435 (Melanoma), five dose; cited from earlier work.
The subject of the next assay is HCT-15. The note with it: HCT-15 (Colon Cancer), five dose; cited from earlier work.
For another assay, the system named is CCRF-CEM. The conditions noted are these: CCRF-CEM (Leukemia), five dose; cited from earlier work.
The test system of a further assay is HCC-2998. The note with it: HCC-2998 (Colon Cancer), five dose; cited from earlier work.
Another assay concerns CAKI-1. The note with it: CAKI-1 (Renal Cancer), five dose; cited from earlier work.
The next assay concerns UO-31. The conditions noted are these: UO-31 (Renal Cancer), five dose; cited from earlier work.
In a further assay the test system is KM12. The conditions noted are these: KM12 (Colon Cancer), five dose; cited from earlier work.
A further assay relates to MDA-MB-468. The conditions noted are these: MDA-MB-468 (Breast Cancer), five dose; cited from earlier work.
Another assay has as its system MV4-11 leukemia cells. The assay can be described thus: MV4-11 leukemia cell viability. It counts as cell-based, human.
Another assay deals with HCT-116. The note with it: HCT-116 (Colon Cancer), five dose; cited from earlier work.
In a further assay the test system is SNB-75. The conditions noted are these: SNB-75 (CNS Cancer), five dose; cited from earlier work.
Another assay concerns NCI/ADR-RES. The note with it: NCI/ADR-RES (Ovarian Cancer), five dose; cited from earlier work.
A further assay concerns HOP-62. The note with it: HOP-62 (Lung Cancer), five dose; cited from earlier work.
The next assay relates to NCI-H23. The conditions noted are these: NCI-H23 (Lung Cancer), five dose; cited from earlier work.
Another assay concerns 786-0. The conditions noted are these: 786-0 (Renal Cancer), five dose; cited from earlier work.
The next assay relates to SNB-19. The conditions noted are these: SNB-19 (CNS Cancer), five dose; cited from earlier work.
The test system of a further assay is M14. The note with it: M14 (Melanoma), five dose; cited from earlier work.
A further assay relates to MDA-MB-231/ATCC. The conditions noted are these: MDA-MB-231/ATCC (Breast Cancer), five dose; cited from earlier work.
Another assay relates to SK-MEL-28. The conditions noted are these: SK-MEL-28 (Melanoma), five dose; cited from earlier work.
In the next assay the test system is RPMI-8226. The conditions noted are these: RPMI-8226 (Leukemia), five dose; cited from earlier work.
For another assay, the system named is IGROV1. The conditions noted are these: IGROV1 (Ovarian Cancer), five dose; cited from earlier work.
The subject of another assay is COLO 205. The note with it: COLO 205 (Colon Cancer), five dose; cited from earlier work.
For another assay, the system named is SK-MEL-5. The note with it: SK-MEL-5 (Melanoma), five dose; cited from earlier work.
Another assay concerns SR. The conditions noted are these: SR (Leukemia), five dose; cited from earlier work.
Another assay concerns U251. The conditions noted are these: U251 (CNS Cancer), five dose; cited from earlier work.
Another assay relates to SK-OV-3. The note with it: SK-OV-3 (Ovarian Cancer), five dose; cited from earlier work.
A further assay relates to HL-60(TB). The conditions noted are these: HL-60(TB) (Leukemia), five dose; cited from earlier work.
For another assay, the system named is OVCAR-4. The conditions noted are these: OVCAR-4 (Ovarian Cancer), five dose; cited from earlier work.
For the next assay, the system named is UACC-62. The conditions noted are these: UACC-62 (Melanoma), five dose; cited from earlier work.
The next assay deals with A549/ATCC. The note with it: A549/ATCC (Lung Cancer), five dose; cited from earlier work.
The next assay relates to HT29. The conditions noted are these: HT29 (Colon Cancer), five dose; cited from earlier work.
The subject of another assay is SK-MEL-2. The note with it: SK-MEL-2 (Melanoma), five dose; cited from earlier work.
The test system of a further assay is tubulin. The assay can be described thus: tubulin polymerization cell-based immunoblot assay. The conditions noted are these: immunoblot of pellet and supernatant. On the technique in general: A western blot detects proteins with antibodies after separation by electrophoresis.
The test system of assay [2] is panel of 60 human tumor cell lines. The assay can be described thus: NCI-60 five dose assay, whole panel summary. In kind it is cell-based.

For the molecule `COc1ccc(/C=C(\C#N)c2cc(OC)c(OC)c(OC)c2)cc1O` [Compound 5], the GI50 (in the assay with MCF7; in the assay on HOP-92; with MOLT-4; in the assay with HS 578T; in assay [1]; in the assay with SF-539) was < 10 nM throughout. The GI50 (commonly the concentration that inhibits growth by half) was < 10 nM in the assay on ACHN; < 10 nM in the assay with SF-268; < 10 nM with LOX IMVI; < 10 nM with SW-620; < 10 nM with K-562; 50 nM in the assay on SF-295. The GI50 in the assay with A498, with NCI-H522, in the assay on OVCAR-3, in the assay on MDA-MB-435, in the assay with HCT-15 and in the assay on CCRF-CEM was < 10 nM in each case. Moreover, the GI50 in the assay on HCC-2998 is 20 nM; with CAKI-1, 30 nM; with UO-31 it was < 10 nM; in the assay with KM12, < 10 nM; in the assay on MDA-MB-468, < 10 nM; with HCT-116, < 10 nM. For the same molecule, the GI50 in the assay on SNB-75, in the assay with NCI/ADR-RES, in the assay with HOP-62, in the assay with NCI-H23, in the assay on 786-0 and with SNB-19 was < 10 nM in each case. For the same molecule, the GI50 is < 10 nM in the assay on M14; < 10 nM with MDA-MB-231/ATCC; 1010 nM in the assay on SK-MEL-28; < 10 nM in the assay on RPMI-8226; < 10 nM in the assay on IGROV1; 2990 nM in the assay with COLO 205. The GI50 with SK-MEL-5 is < 10 nM; in the assay with SR it was < 10 nM; with U251, 10 nM; in the assay on SK-OV-3 it was 10 nM; with HL-60(TB), < 10 nM; in the assay on OVCAR-4, < 10 nM. Besides, the GI50 is < 10 nM in the assay on UACC-62, < 10 nM in the assay on A549/ATCC, 3180 nM with HT29 and < 10 nM with SK-MEL-2. Besides, the “LD50 (48h)” value with MV4-11 leukemia cells is 0.04 µM.
With `COc1ccccc1/C=C(/c1cc(Br)cc(Br)c1)c1nnn[nH]1` [Compound 8c, (Z)-5-(1-(3,5-Dibromophenyl)-2-(2-methoxyphenyl)vinyl)-1H-tetrazole], in the assay on MV4-11 leukemia cells, the “LD50 (24h)” value is 28.8 µM and the “LD50 (48h)” value is 28.6 µM.
Turning to `COc1ccc(/C=C(/c2cc(OC)c(OC)c(OC)c2)c2nnn[nH]2)cc1` [Compound 8g, (Z)-5-(2-(4-Methoxyphenyl)-1-(3,4,5-trimethoxyphenyl)vinyl)-1H-tetrazole], in the assay with MV4-11 leukemia cells, the “LD50 (24h)” value stood at 4.60 µM and the “LD50 (48h)” value was 4.29 µM. The “fold less effective when compared with 8h” value in the assay on MV4-11 leukemia cells (LD50 ratio) was ~170 fold. In the assay on tubulin (1.0 μM and 2.0 μM), the “inhibition of tubulin polymerization” value is recorded as “inhibited tubulin polymerization”. In the assay on tubulin (2.0 μM), the “inhibition of tubulin polymerization” value is “Significant inhibition”.
Take `COc1ccc(/C=C(/c2cc(OC)c(OC)c(OC)c2)c2nnn[nH]2)cc1O` [Compound 8h, (Z)-5-(2-(1H-Tetrazol-5-yl)-2-(3,4,5-trimethoxyphenyl)vinyl)-2-methoxyphenol]: in the assay with MV4-11 leukemia cells, the “LD50 (24h)” value was found to be 0.03 µM. The “LD50 (48h)” value in the assay with MV4-11 leukemia cells is 0.02 µM. For the same molecule, the LD50 in the assay with MV4-11 leukemia cells (time not stated in text (equals 24h value of Table 4)) was found to be 30 nM; in the assay on MV4-11 leukemia cells (time not stated in text (equals 48h value of Table 4)), 20 nM. Further, the GI50 in assay [2] (60 cell) is < 10 nM. Besides, the “inhibition of tubulin polymerization” value was “inhibited tubulin polymerization” in the assay on tubulin (1.0 μM and 2.0 μM); “Significant inhibition” in the assay on tubulin (2.0 μM).
For `COc1ccc(/C=C(/c2ccc([N+](=O)[O-])cc2)c2nnn[nH]2)c2ccccc12` [Compound 10a, (Z)-5-(2-(4-Methoxynaphthalen-1-yl)-1-(4-nitrophenyl)vinyl)-1H-tetrazole], in the assay on MV4-11 leukemia cells, the “LD50 (24h)” value was found to be 1.46 µM and the “LD50 (48h)” value is 1.39 µM. For the same molecule, the “inhibition of tubulin polymerization” value in the assay on tubulin (1.0 μM and 2.0 μM) is “inhibited tubulin polymerization”. Further, the “inhibition of tubulin polymerization” value with tubulin (2.0 μM) is reported as “Significant inhibition”.
Regarding `COc1ccc(/C(=C/c2ccc3ccccc3c2)c2nnn[nH]2)cc1OC` [Compound 10b, (Z)-5-(1-(3,4-Dimethoxyphenyl)-2-(naphthalen-2-yl)vinyl)-1H-tetrazole], the “LD50 (24h)” value in the assay with MV4-11 leukemia cells was determined as 1.08 µM. Further, the “LD50 (48h)” value in the assay with MV4-11 leukemia cells was found to be 1.01 µM. Moreover, the GI50 is < 2500 nM in [2] (against more than 30% of the human cancer cell lines) and < 2000 nM in assay [2] (against only 15% of the cell lines in the panel). Besides, the “inhibition of tubulin polymerization” value in the assay on tubulin (1.0 μM and 2.0 μM) was “inhibited tubulin polymerization”; in the assay with tubulin (2.0 μM), “significantly less active”.
